These results are taken from US10322187B2, “Reduced toxicity molecular conjugates of anti-fungal agents” (Lehigh University, priority 2015, dated 2019).

In one data set the test system is C. albicans. Description: Antifungal activities, MIC/MFC. The data set is classed as cell-based. The conditions noted are these: for MFC: read-out: MFC. As to the method:
(§1) A similar sequence of reactions was carried out using lysine dicholamide in place of cholic acid afforded VJ-1147 of Table 2. To assess the antifungal properties of the diwalled VJ-1138 (Table 2) and 2a of Table 3, their in vitro activities were examined against four clinically relevant microbes, i.e., C. albicans, C. glabrata, C. neoformans, and C. gatti (Table 4).
(§2) Minimum inhibitory concentrations (MIC) and minimum fungicidal concentrations (MFC) are the lowest concentrations that are required for completely inhibiting growth, and killing at least 99% of the fungi, respectively.
(§3) The above molecules were tested for antifungal activity. Minimum inhibitory concentrations (MIC) and minimum fungicidal concentrations (MFC) are the lowest concentrations that are required for completely inhibiting growth, and killing at least 99% of the fungi, respectively. As is apparent from Table 4 below, there is a general trend; i.e., increased antifungal activity is observed as the length of the hydrocarbon chain that separates the facial amphiphile from the Amphotericin B moiety is decreased.

The subject of the next data set is C. gatti. Kind of data set: Antifungal activities, MIC/MFC. It counts as cell-based. Conditions: for MFC: read-out: MFC. As to the method:
as §1, §2, §3

The next data set concerns C. glabrata. Description: Antifungal activities, MIC/MFC. It counts as cell-based. How it is done: as §1, §2, §3
The next data set concerns C. neoformans. Description: Antifungal activities, MIC/MFC. It counts as cell-based. The conditions noted are these: for MFC: read-out: MFC. As to the method: as §1, §2, §3
The nature of data set [1]: Critical aggregation concentration (CAC) by UV absorptivity. It counts as physicochemical. The conditions noted are these: PBS, 37° C., absorptivity at 409 nm. From the text: If one lets: (i) T, m, and P represent the total, the monomeric, and the aggregate concentrations of this macrolide, respectively; (ii) ε represent the apparent molar absorptivity; and (iii) εm and εp represent the molar absorptivity for the monomeric and aggregate components, respectively, then it can be shown that ε=εp+(εm−εp)m/T. See Yamashita K, Janout V, Bernard E M, Armstrong D, and Regen, S L. Micelle/monomer control over the membrane disrupting properties of an amphiphilic antibiotic. J. Am. Chem. Soc. 117 (1995) 6249-6253. At concentrations that are in excess of its CAC, m is constant, and ε is expected to be inversely proportional to T. Thus, by measuring the apparent molar absorptivity as a function of the reciprocal of the concentration of VJ-1138, its CAC value is estimated to be 0.9 μM (from the intercept of two straight lines).
Determination of Critical Aggregation Concentration (CAC) of AmphB and molecular conjugates. Solutions of AmphB and molecular conjugates in DMSO (Sigma-Aldrich) were prepared having a concentration of 1.00 mM. […] The UV spectrum was then recorded in the range of 250-550 nm. The absorbance at 408 nm was plotted as a function of the reciprocal value of the concentration of AmB and the critical aggregation concentration of the molecular conjugates was then determined, graphically.

Another data set relates to sheep red blood cells. Description: Hemolysis measurements, release of hemoglobin. The data set is classed as cell-based. Conditions: for EH50, concentration required to induce 50% release of hemoglobin from erythrocytes: pH 7.4. How it is done:
Sheep Red Blood Cells, 10%, in saline (Innovative Research, Novi, Mich.), were diluted in saline (pH 7.4) to a concentration of 4%, which corresponds to 4×10^7 cells/mL. All measurements were carried out in duplicate. Solutions of Amphotericin B (Sigma-Aldrich) were prepared by adding 10 μL of a DMSO solution containing a given concentration of the antibiotic (i.e., ranging from 0.2 mM to 50 mM) to 490 μL of PBS. After the resulting solution was vortex mixed for 30 seconds (s) it was incubated at 37° C. for 15 min. The resulting solution of antibiotic (500 μL) was then mixed with 500 μL of the 4% erythrocyte dispersion at 37° C. in a 1 mL plastic centrifuge vial to give a dispersion that was vortex mixed at slow rate for 5 s. After 1 h of incubation at 37° C., all samples were centrifuged (1500 g, Eppendorf centrifuge 5415C, 5000 rpm) at rt for 5 min. The supernatant (˜0.7 mL) from each plastic vial was carefully separated from sediment using a disposable glass pipette and quickly transferred to test tube. A volume of 50 μL of this supernatant was then transferred to a UV cell containing 500 μL of PBS that was maintained at 37° C. The UV spectrum was then scanned (450-650 nm) and the absorbance at 575 nm used to determine the extent of hemolysis. The extent of 0% and 100% of hemolysis was obtained from A575 values of experiments that were run in absence of AmphB (control, [A575,]o) and in presence, 100 μM AmphB ([A575]max), respectively.

The test system of data set [2] is C. albicans, C. glabrata, C. neoformans, and C. gatti. Kind of data set: In vitro antifungal activity, general statements on the four microbes. It counts as cell-based. How it is done: as §1, §2
Another data set concerns HEK293T cells. Description: Inhibition of cell growth, MTT cell viability. The data set is classed as cell-based, human. The conditions noted are these: 1, 10, 50, and 100 μM; FIG. 4. As to the method: Human embryonic kidney HEK293 cells were cultured in Dulbecco's modified Eagle's medium (DMEM supplemented with 10% FBS, 100 U/mL penicillin, and 0.1 mg/mL SI-10 streptomycin) in a humidified atmosphere of 5% CO2 at 37° C.
HEK293T cells were seeded in 96-well plates at a density of 6,000 cells/well and incubated overnight. Before treatment, compounds aliquots were solubilized in DMSO to obtain 10 mM stock solutions. Appropriate volumes of these stock solutions were added to DMEM media so the final concentration of DMSO is equal to 1%. After removal of cell media, 50 μL of treatment solutions were added to each well and incubated at 37° C. for 2 h. After treatment, the media was removed, and 100 μL of complete medium was added to each well before returning the plate to the incubator. Cell viability was determined after 72 h using the colorimetric MTT assay. Briefly, 10 μL of a 5 mg/mL MTT stock solution was added to the treated cells and incubated for 2 h at 37° C. The resulting formazan crystals were solubilized in 200 μL of DMSO, and the absorbance was measured at 580 nm using an Infinite 200 PRO microplate reader (Tecan). Cell viability was calculated against control cells treated with the vehicle in DMEM.

Another data set concerns Cryptococcus neoformans. Kind of data set: Cryptococcosis mouse model, brain and lung tissue burden. It counts as in vivo, mice. As to the method: Cryptococcosis mice are infected via tail vein injection of 5×10^4 C. neoformans cells. Inocula are verified by quantitative culture. Animals are identified by temporary ink marking, assigned to groups of 10 mice. Test compounds will be dosed starting on the day of infection. Initial studies will employ i.v., i.p. or oral (gavage) dosing (depending on the compound and the vehicle). Antifungal compounds are given for a period of 7 days. […] On day 8, the lung and brain are evaluated by quantitative culture per gram of tissue, by weighing organs and culturing serially diluted homogenates. These tissue burden studies permit detection of drug efficacy that may not be evident by using a survival endpoint.
The mice were then sacrificed 7 days later for quantitative culture of brain and lung, with cryptococcal cells per gram tissue being expressed as logarithmic values (log 10). Mean values for each group were compared using the t-test.

Where [3] appears, read: first Table 4, C. gatti, read-out: MIC.
The mark [4] stands for this setting: t-test, 70 mg/kg/day intraperitoneal.

“Also recorded” adds a separate entry of the source. Read-outs that look alike come from different tables or passages of the source. Some results are limits rather than exact numbers.

`C[C@@H]1[C@H](O)[C@@H](C)/C=C/C=C/C=C/C=C/C=C/C=C/C=C/[C@H](O[C@@H]2O[C@H](C)[C@@H](O)[C@H](N)[C@@H]2O)C[C@@H]2O[C@](O)(C[C@@H](O)C[C@@H](O)[C@H](O)CC[C@@H](O)C[C@@H](O)CC(=O)O[C@H]1C)C[C@H](O)[C@H]2C(=O)O` [AmphB, amphotericin B, reference compound]: the MIC in the data set on C. albicans (Candida albicans, first Table 4, lowest concentration completely inhibiting growth, C. albicans, read-out: MIC) was 0.5 µM; with C. albicans (Candida albicans, second Table 4 (Example 4), C. albicans, read-out: MIC) it was 0.5 µg/mL; in the data set with C. gatti (setting [3]) it was 0.3 µM; with C. gatti (second Table 4 (Example 4), C. gatti, read-out: MIC), 0.3 µg/mL; in the data set with C. glabrata (Nakaseomyces glabratus, first Table 4, C. glabrata, read-out: MIC) it was 0.5 µM; with C. glabrata (Nakaseomyces glabratus, second Table 4 (Example 4), C. glabrata, read-out: MIC), 0.5 µg/mL. Also, the MIC in the data set with C. neoformans (Cryptococcus neoformans, first Table 4, C. neoformans, read-out: MIC) was 0.3 µM; in the data set with C. neoformans (Cryptococcus neoformans, second Table 4 (Example 4), C. neoformans, read-out: MIC), 0.3 µg/mL. Also, the MFC (usually the smallest concentration meeting the test's criterion for killing the fungus) came out at 1 µM with C. albicans (Candida albicans, first Table 4, lowest concentration killing at least 99% of the fungi, C. albicans); 1 µg/mL in the data set with C. albicans (Candida albicans, second Table 4 (Example 4), C. albicans); 0.5 µM with C. gatti (first Table 4, C. gatti); 0.5 µg/mL in the data set with C. gatti (second Table 4 (Example 4), C. gatti); 1 µM against C. glabrata (Nakaseomyces glabratus, first Table 4, C. glabrata); 1 µg/mL in the data set on C. glabrata (Nakaseomyces glabratus, second Table 4 (Example 4), C. glabrata). Besides, the MFC with C. neoformans (Cryptococcus neoformans, first Table 4, C. neoformans) stood at 0.5 µM; with C. neoformans (Cryptococcus neoformans, second Table 4 (Example 4), C. neoformans), 0.5 µg/mL. The “critical aggregation concentration (CAC)” value in [1] was ~0.9 µM. For the same compound, the “EH50, concentration required to induce 50% release of hemoglobin from erythrocytes” value in the data set on sheep red blood cells (37° C. in saline) turned out to be 4 µM.
In the case of `CC1OC(O[C@H]2/C=C/C=C/C=C/C=C/C=C/C=C/C=C/[C@H](C)[C@@H](O)[C@@H](C)[C@H](C)OC(=O)C[C@H](O)C[C@H](O)CC[C@@H](O)[C@H](O)C[C@H](O)C[C@]3(O)C[C@H](O)[C@@H](C(=O)NCCCCCCCC(=O)N(CCCCNC(=O)CC[C@@H](C)C4CCC5C6C(O)CC7CC(O)CCC7(C)C6CC(O)C54C)CCCNC(=O)CC[C@@H](C)C4CCC5C6C(O)CC7CC(O)CCC7(C)C6CC(O)C54C)[C@H](C2)O3)C(O)C(N)C1O` (stereo partly drawn) [VJ-1138], the MIC with C. albicans (Table 2, 1st value in brackets, C. albicans, read-out: minimum inhibitory concentration (MIC)) is 2 µM; with C. albicans (first Table 4, lowest concentration completely inhibiting growth, C. albicans, read-out: MIC), 1 µM; with C. gatti (Table 2, 4th value in brackets, C. gatti, read-out: minimum inhibitory concentration (MIC)) it was 3 µM; in the data set with C. gatti (setting [3]), 1 µM; in the data set on C. glabrata (Table 2, 2nd value in brackets, C. glabrata, read-out: minimum inhibitory concentration (MIC)), 4 µM; in the data set on C. glabrata (first Table 4, C. glabrata, read-out: MIC), 2 µM. For the same compound, the MIC in the data set on C. neoformans (Table 2, 3rd value in brackets, C. neoformans, read-out: minimum inhibitory concentration (MIC)) was found to be 2 µM; in the data set on C. neoformans (first Table 4, C. neoformans, read-out: MIC), 1 µM. In addition, the MFC in the data set on C. albicans (first Table 4, lowest concentration killing at least 99% of the fungi, C. albicans) stood at 2 µM; in the data set with C. gatti (first Table 4, C. gatti), 2 µM; in the data set with C. glabrata (first Table 4, C. glabrata), 4 µM; in the data set with C. neoformans (first Table 4, C. neoformans), 2 µM. The “antifungal potency compared with AmphB” value in [2] (on a molar basis) is reported as “approaches that of the native antibiotic; also recorded: approaching that of AmphB”. Further, the “critical aggregation concentration (CAC)” value in [1] turned out to be 0.9 µM. Further, in the data set on sheep red blood cells, the “EH50 relative to AmphB” value is given as “approximately 2 orders of magnitude”. In the data set on sheep red blood cells, the “hemolytic activity relative to AmphB” value is “dramatically reduced”. Besides, the “EH50, concentration required to induce 50% release of hemoglobin from erythrocytes” value with sheep red blood cells amounted to 375 µM. Moreover, the “toxicity toward HEK293t cells compared with AmphB” value in the data set on HEK293T cells was “dramatically reduced”. Further, the mean lung burden with Cryptococcus neoformans (CD1 male mice, intraperitoneal DMSO solution, 70 mg/kg/day, 7 days, untreated 6.34) is on record as 5.10 log 10 cryptococcal cells per. The mean brain burden in the data set on Cryptococcus neoformans (CD1 male mice, intraperitoneal DMSO solution, 70 mg/kg/day, 7 days, untreated 8.22) is given as 7.66 log 10 cryptococcal cells per. In addition, the “p, brain tissue burden compared to untreated mice” value in the data set on Cryptococcus neoformans (setting [4]) worked out at 0.0083. For the same compound, the “p, lung tissue burden compared to untreated mice” value in the data set on Cryptococcus neoformans (setting [4]) is < 0.0001.
Regarding `CC1OC(O[C@H]2/C=C/C=C/C=C/C=C/C=C/C=C/C=C/[C@H](C)[C@@H](O)[C@@H](C)[C@H](C)OC(=O)C[C@H](O)C[C@H](O)CC[C@@H](O)[C@H](O)C[C@H](O)C[C@]3(O)C[C@H](O)[C@@H](C(=O)NCCCCCCCC(=O)N(CCCCNC(=O)C(CCCCNC(=O)CC[C@@H](C)C4CCC5C6C(O)CC7CC(O)CCC7(C)C6CC(O)C54C)NC(=O)CC[C@@H](C)C4CCC5C6C(O)CC7CC(O)CCC7(C)C6CC(O)C54C)CCCNC(=O)C(CCCCNC(=O)CC[C@@H](C)C4CCC5C6C(O)CC7CC(O)CCC7(C)C6CC(O)C54C)NC(=O)CC[C@@H](C)C4CCC5C6C(O)CC7CC(O)CCC7(C)C6CC(O)C54C)[C@H](C2)O3)C(O)C(N)C1O` (stereo partly drawn) [VJ-1155], the MIC in the data set on C. albicans (Candida albicans), in the data set with C. gatti, against C. glabrata (Nakaseomyces glabratus) and in the data set on C. neoformans (Cryptococcus neoformans) was > 11 µM each time. Further, in [2] (at 11 μM), the antifungal activity entry was “no antifungal activity”.
